Results on three compounds are retold here after publication PMC12693701, “Glucosinolate-Derived Metabolites from Barbarea vulgaris (Brassicaceae): Evaluation of Antimicrobial, Antioxidant, and Anti-Inflammatory Potentials” (Molecules, 2025).

Structures are written as SMILES.

One experiment deals with tested fungal strains. Description: Microdilution MIC, summary over tested fungal strains. The settings on record: tested concentrations 5 to 0.039 mg/mL. Type of experiment: cell-based. The method, then:
The antimicrobial activity was evaluated against 15 microorganisms. This included 11 bacterial strains: four standard strains (Staphylococcus aureus ATCC 25923, Bacillus subtilis ATCC 6633, Bacillus pumilus NCTC 8241, and Escherichia coli ATCC 25922) and six clinical or environmental isolates (Staphylococcus aureus, Escherichia coli, Bacillus cereus, Proteus mirabilis, Salmonella enterica, and Klebsiella pneumoniae). One probiotic strain, Bifidobacterium animalis subsp. lactis was tested. In addition, four fungal strains, Candida albicans ATCC 10231, Trichoderma viride ATCC 13233, Aspergillus flavus ATCC 9170, and Fusarium solani ATCC 11712 were tested. The bacterial strains were kept in glycerol stock at −80 °C and the fungal strains in paraffin oil stock at 4 °C. […]
Antimicrobial activity was evaluated by determining the minimum inhibitory concentration (MIC) and minimum microbicidal concentration (MMC) using the microdilution plate method with resazurin as an indicator [28]. […]
Each test also included growth control and sterility control. […] For molds, MIC values of the tested compound were determined as the lowest concentration that inhibited visible mycelia growth. MMC was determined by inoculation of the nutrient agar medium by plating […] of samples from wells, where no indicator color change was recorded. […]

Another experiment addresses T1, COX-2 (Homo sapiens, UniProt P35354).
T1 construct: purchased Abcam limited, Cambridge, UK
T1 sequence (P35354 18-604): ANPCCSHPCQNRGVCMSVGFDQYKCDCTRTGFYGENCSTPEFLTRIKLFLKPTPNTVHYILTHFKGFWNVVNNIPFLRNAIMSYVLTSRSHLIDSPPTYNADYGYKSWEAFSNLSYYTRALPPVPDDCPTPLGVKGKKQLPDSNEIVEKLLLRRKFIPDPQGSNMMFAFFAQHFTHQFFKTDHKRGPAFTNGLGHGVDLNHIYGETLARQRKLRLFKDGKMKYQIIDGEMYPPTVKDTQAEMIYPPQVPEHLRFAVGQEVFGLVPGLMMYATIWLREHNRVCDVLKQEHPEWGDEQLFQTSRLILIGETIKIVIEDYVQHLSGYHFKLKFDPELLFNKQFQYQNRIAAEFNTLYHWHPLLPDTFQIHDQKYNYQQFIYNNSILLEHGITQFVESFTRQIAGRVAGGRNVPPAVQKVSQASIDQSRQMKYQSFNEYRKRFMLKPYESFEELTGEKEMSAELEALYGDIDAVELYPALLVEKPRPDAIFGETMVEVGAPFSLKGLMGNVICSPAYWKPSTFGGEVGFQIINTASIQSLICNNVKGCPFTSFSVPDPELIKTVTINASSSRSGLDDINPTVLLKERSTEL
Description: COX-2 Inhibitor Screening Kit (Fluorometric). Type of experiment: biochemical. The settings on record: for inhibition at 10 µM / inhibition at 100 µM: mean ± SE, read-out: Percentage of COX-2 Inhibition. As to the method: The COX-2 Inhibitor Screening Kit (Fluorometric) (Abcam limited, Cambridge, UK) is a sensitive assay for screening COX-2 inhibitors by fluorometrically detecting Prostaglandin G2, an intermediate formed by COX enzymatic activity The COX-2 inhibitory activity was evaluated following the manufacturer’s instructions. Tested compounds were prepared as 5 mM DMSO stock solutions, diluted 5-fold with assay buffer, and 10 µL was used per well. Controls included celecoxib (inhibitor control), DMSO (solvent control) and enzyme control. A reaction mix containing COX-2 enzyme, probe, cofactor, and assay buffer was added (80 µL), followed by 10 µL arachidonic acid/NaOH to start the reaction. Fluorescence (Ex/Em = 535/587 nm) was monitored kinetically at 25 °C. All measurements were performed in triplicate.

As to `O=C1NCC(c2ccccc2)S1` (stereo not shown) [Compound 6, 5-phenyl-1,3-thiazolidin-2-one], in the experiment on tested fungal strains, the “antifungal activity (in words)” value is given as “all fungal strains were resistant”.

In the case of `S=C1NC[C@H](c2ccccc2)O1` [Compound 5, (S)-5-phenyl-1,3-oxazolidine-2-thione], on COX-2, the IC50 is greater than 100 µM, the inhibition at 10 µM was 8.11 ± 1% and the inhibition at 100 µM is 21.2 ± 1.3%.

On to `S=C1NCC(c2ccccc2)O1` (racemic) [Compound 4, rac-5-Phenyl-1,3-oxazolidine-2-thione], for which, on COX-2, the half-maximal inhibitory concentration (IC50) was greater than 100 µM, the inhibition at 10 µM turned out to be 4.5 ± 1.6% and the inhibition at 100 µM amounted to 14.2 ± 1%.
